Results on 4 compounds are retold here after ChEMBL document CHEMBL4257485, “The critical role of novel benzophenone analogs on tumor growth inhibition targeting angiogenesis and apoptosis” (Medchemcomm, 2018).

Calls of active or inactive are those of the source. The rule behind the calls is not given here.

Test [1] relates to A549. The test can be described thus: Cytotoxicity against human A549 cells after 48 hrs by trypan blue exclusion assay. The conditions noted are these: A549, 48 h. It counts as functional, cell-based.
Test [2] deals with A549. The test can be described thus: Cytotoxicity against human A549 cells after 48 hrs by MTT assay. The test is classed as functional, cell-based. The following applies: A549, 48 h. A general note: Tetrazolium dyes change colour on reduction, which living cells bring about.
Test [3] deals with A549. The test can be described thus: Cytotoxicity against human A549 cells after 48 hrs by LDH release assay. The test is classed as functional, cell-based. The conditions noted are these: A549, 48 h. Background: LDH in the medium is a marker of cell lysis.
Test [4] relates to HeLa. Briefly: Cytotoxicity against human HeLa cells after 48 hrs by trypan blue exclusion assay. The test is classed as functional, cell-based.
Test [5] concerns HeLa. Briefly: Cytotoxicity against human HeLa cells after 48 hrs by MTT assay. The test is classed as functional, cell-based.
Test [6] deals with HeLa. Briefly: Cytotoxicity against human HeLa cells after 48 hrs by LDH release assay. The test is classed as functional, cell-based.
Test [7] deals with MCF7. The test can be described thus: Cytotoxicity against human MCF7 cells after 48 hrs by trypan blue exclusion assay. The test is classed as functional, cell-based. The conditions noted are these: MCF7, 48 h.
Test [8] has as its system MCF7. Briefly: Cytotoxicity against human MCF7 cells after 48 hrs by MTT assay. The test is classed as functional, cell-based. The following applies: MCF7, 48 h.
Test [9] deals with MCF7. The test can be described thus: Cytotoxicity against human MCF7 cells after 48 hrs by LDH release assay. The test is classed as functional, cell-based. The following applies: MCF7, 48 h.
Test [10] has as its system NIH3T3. The test can be described thus: Cytotoxicity against mouse NIH/3T3 cells after 48 hrs by trypan blue exclusion assay. The test is classed as cell-based. The conditions noted are these: NIH3T3, 48 h.
The subject of test [11] is NIH3T3. The test can be described thus: Cytotoxicity against mouse NIH/3T3 cells after 48 hrs by MTT assay. It counts as cell-based. The following applies: NIH3T3, 48 h.
Test [12] relates to NIH3T3. The test can be described thus: Cytotoxicity against mouse NIH/3T3 cells after 48 hrs by LDH release assay. It counts as cell-based. The following applies: NIH3T3, 48 h.
The test system of test [13] is A549. Briefly: Induction of apoptosis in human A549 cells assessed as formation of apoptotic bodies after 12 to 15 hrs by flow cytometric method. The test is classed as functional, cell-based. A general note: A flow cytometer gives signals particle by particle.
The subject of test [14] is A549. The test can be described thus: Induction of apoptosis in human A549 cells assessed as cell condensation after 12 to 15 hrs by flow cytometric method. The test is classed as functional, cell-based.
Test [15] has as its system A549. Briefly: Cell cycle arrest in human A549 cells assessed as accumulation at sub-G1 phase after 16 hrs by propidium iodide staining-based flow cytometric method (reference value: 0.69%). It counts as functional.
The subject of test [16] is A549. Briefly: Cell cycle arrest in human A549 cells assessed as accumulation at G0/G1 phase after 16 hrs by propidium iodide staining-based flow cytometric method (reference value: 70.8%). It counts as functional.
Test [17] deals with A549. Briefly: Cell cycle arrest in human A549 cells assessed as accumulation at S phase after 16 hrs by propidium iodide staining-based flow cytometric method (reference value: 24.8%). It counts as functional.
Test [18] relates to A549. Briefly: Cell cycle arrest in human A549 cells assessed as accumulation at G2/M phase after 16 hrs by propidium iodide staining-based flow cytometric method (reference value: 3.44%). It counts as functional.
The subject of test [19] is A549. The test can be described thus: Induction of apoptosis in human A549 cells assessed as early apoptotic cells after 12 to 15 hrs by annexin-V-FITC/propidium iodide staining-based flow cytometric method (reference value: 1.65%). It counts as functional.
In test [20] the test system is A549. The test can be described thus: Induction of apoptosis in human A549 cells assessed a late apoptotic cells after 12 to 15 hrs by annexin-V-FITC/propidium iodide staining-based flow cytometric method (reference value: 14.3%). The test is classed as functional.
Test [21] concerns A549. The test can be described thus: Induction of apoptosis in human A549 cells assessed a necrotic cells after 12 to 15 hrs by annexin-V-FITC/propidium iodide staining-based flow cytometric method (reference value: 10.2%). It counts as functional.
The subject of test [22] is A549. Briefly: Induction of apoptosis in human A549 cells assessed as live cells after 12 to 15 hrs by annexin-V-FITC/propidium iodide staining-based flow cytometric method (reference value: 73.8%). The test is classed as functional.

The IC50 is the concentration at which inhibition is half-maximal. A higher IC50 goes with weaker potency in that assay. Take `Cc1ccc(C(=O)c2cc(F)c(OCC(=O)NNC(=O)c3ccc(=O)oc3)c(Cl)c2)cc1`: the 50% inhibitory concentration (IC50) in the test with A549 [1] came to 19.6 µM; with A549 [2], 22.6 µM; in the test on A549 [3], 21.4 µM; with HeLa [4] it was 26.2 µM; with HeLa [5], 20.9 µM; with HeLa [6], 26.9 µM. Further, the half-maximal inhibitory concentration (IC50) was determined as 29.1 µM in the test on MCF7 [7]; 23.6 µM with MCF7 [8]; 24.2 µM in the test on MCF7 [9]; 30.8 µM in the test with NIH3T3 [10]; 28.9 µM in the test with NIH3T3 [11]; 32.1 µM in the test on NIH3T3 [12].

On to `CC[C@@]1(O)C(=O)OCc2c1cc1n(c2=O)Cc2cc3ccccc3nc2-1` [CAMPTOTHECIN], for which the result in the test on A549 [13] and with A549 [14] was Active. Also, the Activity in the test on A549 [15] is recorded as 19%; with A549 [16] it was 59.4%; in the test with A549 [17] it was 19.2%; in the test with A549 [18], 2.43%; in the test with A549 [19], 2.16%; in the test with A549 [20], 23.6%. In addition, the values for the Activity in the test on A549 [21] and in the test with A549 [22] were 9.12% and 65.1%, respectively.

For `Cn1cnc(C(=O)NNC(=O)COc2ccc(C(=O)c3ccccc3)cc2)c1`, the IC50 is 29.6 µM in the test with A549 [1]; 30.6 µM in the test on A549 [2]; 31.6 µM in the test with A549 [3]; 33.2 µM in the test with HeLa [4]; 32.9 µM in the test with HeLa [5]; 31.9 µM with HeLa [6]. The IC50 with MCF7 [7] was 29.6 µM; with MCF7 [8] it was 30.6 µM; in the test with MCF7 [9], 31.6 µM; with NIH3T3 [10], 98.8 µM; in the test on NIH3T3 [11], 96.9 µM; in the test on NIH3T3 [12], 97.4 µM.

For `O=C(COc1ccc(C(=O)c2ccccc2)cc1)NNC(=O)c1ccc(=O)oc1`, the half-maximal inhibitory concentration (IC50) with A549 [1] came out at 96.7 µM; in the test on A549 [2] it was 98.8 µM; in the test with A549 [3] it was 90.9 µM; with HeLa [4], 89.2 µM; with HeLa [5], 99.1 µM; with HeLa [6] it was 96.1 µM. The 50% inhibitory concentration (IC50) in the test with MCF7 [7] is 92.9 µM; in the test with MCF7 [8] it was 93.2 µM; in the test on MCF7 [9], 61.1 µM; with NIH3T3 [10] it was 84.3 µM; with NIH3T3 [11] it was 87.3 µM; in the test on NIH3T3 [12], 88.2 µM.
